From ChEMBL document CHEMBL1201862, “PubChem BioAssay data set” (2004)
Calls of active or inactive are those of the source. Cut-off read from the data, not from the text of the source, for most assays here: actives have a measured EC50 and inactives only a lower limit.

How the values were obtained:
[1] = Luminescence Cell-Based Dose Confirmation HTS to Identify Activators of 5'UTR Stem-Loop Driven Alpha-Synuclein mRNA Translation in H4 Neuroglioblastoma Cells. [Related pubchem assays: 1829 (Project Summary), 1814 (Primary HTS)]; type: functional
[2] = Luminescence Cell-Based Dose Response HTS to Identify Activators of Luciferase Translation or Activity in H4 […] Cells. [Related pubchem assays: 1829 (Project Summary), 1814 (Primary HTS)]; type: functional
H4 = assay: Luminescence Cell-Based Dose Response HTS to Identify Activators of 5'UTR Stem-Loop Driven Prion Protein mRNA Translation in H4 Neuroglioblastoma Cells. [Related pubchem assays: 1829 (Project Summary), 1814 (Primary HTS)]; type: functional; conditions: Homo sapiens
[3] = molecular target: T1, Rac GTPase-activating protein 1 (Homo sapiens, UniProt Q9H0H5); assay: blockers of MgcRacGAP-driven Rac1 GTP hydrolysis – biochemical, ADP Hunter fluorescence, primary and confirmatory, confirmation (AID 624330); type: functional
T1 sequence (Q9H0H5 whole entry): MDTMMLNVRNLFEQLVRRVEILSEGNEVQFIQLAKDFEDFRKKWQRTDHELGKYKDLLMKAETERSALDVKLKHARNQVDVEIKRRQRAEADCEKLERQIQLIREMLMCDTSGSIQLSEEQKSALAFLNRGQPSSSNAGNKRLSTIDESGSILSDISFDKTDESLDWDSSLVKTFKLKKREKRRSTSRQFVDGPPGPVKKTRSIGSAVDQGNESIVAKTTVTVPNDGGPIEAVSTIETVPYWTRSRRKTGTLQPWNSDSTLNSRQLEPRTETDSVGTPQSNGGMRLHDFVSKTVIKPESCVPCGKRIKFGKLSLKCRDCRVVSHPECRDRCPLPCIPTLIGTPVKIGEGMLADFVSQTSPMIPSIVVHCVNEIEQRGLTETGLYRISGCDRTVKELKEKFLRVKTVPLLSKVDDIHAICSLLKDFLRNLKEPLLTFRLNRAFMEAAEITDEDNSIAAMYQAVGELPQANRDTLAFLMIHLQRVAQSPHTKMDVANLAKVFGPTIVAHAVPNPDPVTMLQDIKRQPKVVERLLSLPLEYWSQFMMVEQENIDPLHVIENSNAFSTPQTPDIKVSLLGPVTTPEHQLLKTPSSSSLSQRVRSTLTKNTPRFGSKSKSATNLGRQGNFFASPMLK

[4] = luciferase reporter signal suppression in cells – H4 neuroglioma cells, luminescence, dose response (AID 1990); type: functional, cell-based
[5] = Luminescence Cell-Based Dose Response HTS to Identify Inhibitors of 5'UTR Stem-Loop Driven Prion Protein mRNA Translation in H4 Neuroglioblastoma Cells. [Related pubchem assays: 1827 (Project Summary), 1813 (Primary HTS)]; type: functional
[6] = alpha-synuclein stem-loop luciferase translation blockers – H4 neuroglioma cells, luminescence, confirmation (AID 1988); type: functional, cell-based
[7] = Trypanosoma cruzi growth suppression in host cells – NIH3T3 host cells, beta-gal luminescence, confirmation (AID 2044); type: functional, cell-based;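 note: intracellular parasites grown in NIH/3T3 mouse fibroblasts as host cells; luminescent beta-galactosidase reporter signal from transgenic T. cruzi replicating inside host cells; inhibitors lower the luminescence signal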
[8] = NIH3T3 cell viability loss – ATP luminescence, mouse fibroblasts, counter-screen, dose response (AID 2010); type: functional, cell-based;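 note: cells exposed to compound for about 90 hours before reading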
H9c2 = assay: cells; type: functional, cell-based; conditions: Rattus norvegicus, H9c2, Myocardium;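 note: confirmatory concentration-response retest of ultra-high-throughput screening hits for modulation of myocardial damage; cell death induced by hydrogen peroxide oxidative stress; compound pretreatment for 60 min then peroxide exposure for 2 h; potency is for protecting the cells against peroxide damage rather than for killing them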
[9] = molecular target: T2, Corticotropin-releasing factor receptor 2/Corticotropin-releasing factor-binding protein (Homo sapiens, UniProt P24387+Q13324); assay: Dose Response confirmation of uHTS hits for small molecule antagonists of the CRF-binding protein and CRF-R2 receptor complex.; type: functional; conditions: read-out: IC50_Mean
T2 sequence (Q13324 whole entry): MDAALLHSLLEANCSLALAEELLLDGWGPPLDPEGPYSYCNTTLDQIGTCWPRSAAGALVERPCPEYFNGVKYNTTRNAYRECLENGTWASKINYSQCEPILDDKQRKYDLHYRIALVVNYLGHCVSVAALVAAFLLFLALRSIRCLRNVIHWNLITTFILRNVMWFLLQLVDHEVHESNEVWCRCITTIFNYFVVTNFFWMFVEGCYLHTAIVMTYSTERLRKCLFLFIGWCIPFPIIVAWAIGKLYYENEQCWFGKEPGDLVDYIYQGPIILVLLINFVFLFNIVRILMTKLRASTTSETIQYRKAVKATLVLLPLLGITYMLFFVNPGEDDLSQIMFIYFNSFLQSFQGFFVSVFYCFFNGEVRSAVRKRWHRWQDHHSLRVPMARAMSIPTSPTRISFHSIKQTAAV
T2 sequence (P24387 whole entry): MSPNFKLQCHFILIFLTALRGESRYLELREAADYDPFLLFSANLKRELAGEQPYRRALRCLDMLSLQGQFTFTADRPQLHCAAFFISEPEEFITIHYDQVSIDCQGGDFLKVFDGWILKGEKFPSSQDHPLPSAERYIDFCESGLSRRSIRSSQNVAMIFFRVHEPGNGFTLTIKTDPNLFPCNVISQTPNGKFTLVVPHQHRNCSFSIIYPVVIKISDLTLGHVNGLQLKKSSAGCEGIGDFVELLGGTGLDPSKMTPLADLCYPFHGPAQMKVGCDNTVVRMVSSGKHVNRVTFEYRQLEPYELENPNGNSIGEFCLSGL

[10] = molecular target: T2, Corticotropin-releasing factor receptor 2/Corticotropin-releasing factor-binding protein; assay: activators of CRF receptor 2 with binding protein – uHTS hits, confirmation (AID 602473); type: functional; conditions: read-out: EC50_Mean
[11] = molecular target: T3, Replicative DNA helicase DnaB (Mycobacterium tuberculosis, UniProt P9WMR3); assay: DnaB intein splicing inhibitors, dose response, biochemical, cell-free fluorescence (AID 449749); type: functional
T3 sequence (P9WMR3 whole entry): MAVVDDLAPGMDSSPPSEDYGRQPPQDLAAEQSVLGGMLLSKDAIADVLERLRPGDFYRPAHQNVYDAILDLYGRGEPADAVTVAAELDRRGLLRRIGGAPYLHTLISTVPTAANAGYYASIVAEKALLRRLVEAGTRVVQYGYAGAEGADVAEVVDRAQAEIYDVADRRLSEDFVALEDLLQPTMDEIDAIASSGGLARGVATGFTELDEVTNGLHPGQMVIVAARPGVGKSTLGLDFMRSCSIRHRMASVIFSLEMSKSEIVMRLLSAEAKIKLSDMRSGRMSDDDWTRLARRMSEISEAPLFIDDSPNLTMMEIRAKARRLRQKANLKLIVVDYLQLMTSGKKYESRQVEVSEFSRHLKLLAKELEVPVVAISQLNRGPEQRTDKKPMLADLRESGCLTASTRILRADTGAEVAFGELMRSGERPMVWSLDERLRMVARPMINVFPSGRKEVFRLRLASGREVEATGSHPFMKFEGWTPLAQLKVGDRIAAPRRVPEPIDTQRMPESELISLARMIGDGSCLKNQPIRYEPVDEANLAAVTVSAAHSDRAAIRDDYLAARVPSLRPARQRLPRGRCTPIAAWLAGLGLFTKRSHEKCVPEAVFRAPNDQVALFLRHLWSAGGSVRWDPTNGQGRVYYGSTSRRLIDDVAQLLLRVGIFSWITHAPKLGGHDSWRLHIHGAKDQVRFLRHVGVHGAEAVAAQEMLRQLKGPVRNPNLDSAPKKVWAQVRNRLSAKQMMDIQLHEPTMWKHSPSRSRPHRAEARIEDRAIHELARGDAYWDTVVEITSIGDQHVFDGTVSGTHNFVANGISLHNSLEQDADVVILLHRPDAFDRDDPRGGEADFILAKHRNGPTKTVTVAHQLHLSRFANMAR

Protein RecA = molecular target: T4, Protein RecA (Mycobacterium tuberculosis, UniProt P9WHJ3); assay: Fluorescence Cell-Free Homogeneous Dose Retest to Identify Inhibitors of RecA-Intein Splicing Activity. [Related pubchem assays (depositor defined):AID2097, AID2223, AID489010, AID492950]; type: functional
T4 sequence (P9WHJ3 whole entry): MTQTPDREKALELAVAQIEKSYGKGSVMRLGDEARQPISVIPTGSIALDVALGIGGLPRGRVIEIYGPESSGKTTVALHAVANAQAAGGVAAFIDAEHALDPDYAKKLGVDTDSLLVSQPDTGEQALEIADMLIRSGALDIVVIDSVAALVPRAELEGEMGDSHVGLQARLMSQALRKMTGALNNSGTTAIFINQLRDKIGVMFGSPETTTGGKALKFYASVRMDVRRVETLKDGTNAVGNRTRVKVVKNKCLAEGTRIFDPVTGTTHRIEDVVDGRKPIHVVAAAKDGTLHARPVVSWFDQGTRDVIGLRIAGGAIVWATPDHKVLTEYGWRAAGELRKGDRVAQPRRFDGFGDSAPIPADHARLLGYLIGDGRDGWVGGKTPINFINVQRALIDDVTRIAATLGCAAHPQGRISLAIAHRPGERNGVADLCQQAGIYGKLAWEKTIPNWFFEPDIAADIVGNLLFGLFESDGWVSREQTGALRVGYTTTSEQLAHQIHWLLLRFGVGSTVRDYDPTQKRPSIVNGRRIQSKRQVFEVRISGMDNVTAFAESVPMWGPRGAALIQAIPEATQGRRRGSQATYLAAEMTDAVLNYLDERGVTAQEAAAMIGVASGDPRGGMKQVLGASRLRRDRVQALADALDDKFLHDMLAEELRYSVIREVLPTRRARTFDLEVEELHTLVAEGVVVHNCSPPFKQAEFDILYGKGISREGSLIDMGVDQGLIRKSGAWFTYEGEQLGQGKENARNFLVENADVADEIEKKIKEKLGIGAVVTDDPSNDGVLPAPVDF

Structure (SMILES) | EC50 [1] | EC50 [2] | EC50 (H4) | further results
O=C(c1cn(-c2ccc(Cl)c(Cl)c2)nn1)C1CC1 | 7.57 µM (active) | 10.6 µM (active) | > 60 µM (not active) | –
CC(=O)c1c(C)c(C)c2n1CCn1c(C)ccc1-2 | – | – | – | IC50 [3]: 29 µM (active)
CCn1ncc(C(=O)Nc2cccc(Cl)c2)c1C | 0.244 µM (active) | 5.61 µM (active) | 109 µM (active) | –
Cc1ccc(NC(=O)CN(C)CC(=O)Nc2ccc(F)c(F)c2F)c(Cl)c1 | – | – | – | EC50 [4]: > 120 µM (not active); EC50 [5]: > 120 µM (not active); EC50 [6]: > 120 µM (not active)
COC(=O)c1c(NC(=O)CCNCc2ccco2)sc2c1CCC2 | – | – | – | IC50 [3]: 138 µM (active)
COc1ccc(-c2nn(-c3ccccc3)cc2/C=C/C(=O)NCCCn2ccnc2)cc1OC | – | – | – | EC50 [4]: > 120 µM (not active); EC50 [5]: > 120 µM (not active); EC50 [6]: > 60 µM (not active)
CCOC(=O)c1cnc2c(OC)cccc2c1N1CCN(c2ccccc2OC)CC1 | – | – | – | EC50 [4]: 11.4 µM (active); EC50 [5]: > 120 µM (not active); EC50 [6]: 8.6 µM (active)
Cc1nc2ccc(NC(=O)CCC3CCCC3)cc2s1 | 10.7 µM (active) | 28.8 µM (active) | 15.2 µM (active) | –
CCN1C(=O)C(=C2C=C(C)OC(C)=C2)C(=O)N(CC)C1=S | > 120 µM (not active) | > 120 µM (not active) | > 120 µM (not active) | –
C=CCNC(=O)CN1CCN(C(c2ccccc2)c2ccccc2)CC1 | – | – | – | IC50 [3]: 168 µM (active)
Cn1c(C(=O)NC2CCCCC2)cc2c(=O)n3ccccc3nc21 | > 120 µM (not active) | 8.85 µM (active) | 29.3 µM (active) | –
CCCCCSc1nc(N2CCOCC2)c2c(c1C#N)CC(C)(C)OC2 | – | – | – | EC50 [4]: > 120 µM (not active); EC50 [5]: 19.8 µM (active); EC50 [6]: > 120 µM (not active)
Nc1n[nH]c(N)c1N=Nc1ccc2c(c1)OCO2 | – | – | – | EC50 [7]: > 60 µM (not active); EC50 [8]: > 60 µM (not active); IC50 [3]: 30.1 µM (active)
Cn1c(SCc2ccccc2F)nnc1-c1cnccn1 | 0.166 µM (active) | 35.2 µM (active) | 4.22 µM (active) | –
Cc1c(Cl)cccc1N=C(S)N(Cc1cccs1)C1CCCC1 | – | – | – | EC50 [4]: > 120 µM (not active); EC50 [5]: > 120 µM (not active); EC50 [6]: > 120 µM (not active)
COc1ccc(NC(=O)c2ccc(-c3csc(C)n3)cc2)cc1 | 3.97 µM (active) | 1.24 µM (active) | > 120 µM (not active) | –
COc1ccc(C2=NCN(c3ccc(C)cc3)C(S)=N2)cc1 | 6.32 µM (active) | > 120 µM (not active) | 7.4 µM (active) | –
O=[N+]([O-])c1ccc2c(c1)C(O)n1nc(-c3ccccc3)nc1S2 (centres undefined) | > 120 µM (not active) | > 120 µM (not active) | > 120 µM (not active) | –
N#C/C=C1\Sc2ccccc2C(=O)N1CC(=O)N1CCN(S(=O)(=O)c2ccccc2)CC1 | 13.2 µM (active) | 16 µM (active) | 46.7 µM (active) | –
COc1cc(/C=C/c2nnc3c4ccccc4ncn23)cc(OC)c1OC | 8.84 µM (active) | 29.1 µM (active) | > 120 µM (not active) | IC50 (H9c2): > 79 µM (inactive)
CCOc1cc(C=NNC(=O)c2cccc(S(=O)(=O)N3CCCC3)c2)ccc1O | – | – | – | IC50 [3]: 32.3 µM (active)
CC(C)NC(=O)CN1C(=O)CSc2ccc(S(=O)(=O)N3CCCC3)cc21 | – | – | – | IC50 [9]: > 47.1 µM (inactive); EC50 [10]: > 53 µM (inactive)
COc1nc(N/N=C/c2ccc(-c3ccccc3[N+](=O)[O-])o2)nc(N2CCOCC2)n1 | 12.4 µM (active) | 22.5 µM (active) | 24.7 µM (active) | AC50 [11]: 16 µM (active); EC50 (Protein RecA): 14.4 µM (active)
CCn1c(C)nc2cc(C(=O)N/N=C/c3ccc(O)cc3)ccc21 | – | – | – | IC50 [3]: 66.7 µM (active)
